# BindingDB's records for doi:10.1016/j.ejmech.2021.113242 (South China Agricultural University, 2021)
# Assay: Inhibition of spike glycoprotein S in SARS-CoV-2 pseudovirus infected human 293T/ACE2 cells assessed as inhibition of viral infection measured after 48 hrs by luciferase reporter gene assay
row,SMILES,IC50 [µM]
1,O=C(/C=C/c1ccc(O)c2oc(-c3ccc(O)c(O)c3)cc12)O[C@H](Cc1ccc(O)c(O)c1)C(=O)O,3.85
2,C[C@@H]1O[C@@H](O[C@H]2[C@H](O[C@H]3CC[C@]4(C)[C@H]5CC=C6[C@@H]7CC(C)(C)CC[C@]7(C(=O)Nc7ccccc7)CC[C@@]6(C)[C@]5(C)CC[C@H]4C3(C)C)O[C@H](CO)[C@@H](O[C@@H]3O[C@@H](C)[C@H](O)[C@@H](O)[C@H]3O)[C@@H]2O)[C@H](O)[C@H](O)[C@H]1O,18.1
3,COc1ccccc1NC(=O)[C@]12CCC(C)(C)C[C@H]1C1=CC[C@@H]3[C@@]4(C)CC[C@H](O[C@@H]5O[C@H](CO)[C@@H](O[C@@H]6O[C@@H](C)[C@H](O)[C@@H](O)[C@H]6O)[C@H](O)[C@H]5O[C@@H]5O[C@@H](C)[C@H](O)[C@@H](O)[C@H]5O)C(C)(C)[C@@H]4CC[C@@]3(C)[C@]1(C)CC2,5.54
4,COc1cccc(NC(=O)[C@]23CCC(C)(C)C[C@H]2C2=CC[C@@H]4[C@@]5(C)CC[C@H](O[C@@H]6O[C@H](CO)[C@@H](O[C@@H]7O[C@@H](C)[C@H](O)[C@@H](O)[C@H]7O)[C@H](O)[C@H]6O[C@@H]6O[C@@H](C)[C@H](O)[C@@H](O)[C@H]6O)C(C)(C)[C@@H]5CC[C@@]4(C)[C@]2(C)CC3)c1,8.33
5,COc1ccc(NC(=O)[C@]23CCC(C)(C)C[C@H]2C2=CC[C@@H]4[C@@]5(C)CC[C@H](O[C@@H]6O[C@H](CO)[C@@H](O[C@@H]7O[C@@H](C)[C@H](O)[C@@H](O)[C@H]7O)[C@H](O)[C@H]6O[C@@H]6O[C@@H](C)[C@H](O)[C@@H](O)[C@H]6O)C(C)(C)[C@@H]5CC[C@@]4(C)[C@]2(C)CC3)cc1,9.97
6,C[C@@H]1O[C@@H](O[C@H]2[C@H](O[C@H]3CC[C@]4(C)[C@H]5CC=C6[C@@H]7CC(C)(C)CC[C@]7(C(=O)Nc7ccccc7Cl)CC[C@@]6(C)[C@]5(C)CC[C@H]4C3(C)C)O[C@H](CO)[C@@H](O[C@@H]3O[C@@H](C)[C@H](O)[C@@H](O)[C@H]3O)[C@@H]2O)[C@H](O)[C@H](O)[C@H]1O,6.27
7,C[C@@H]1O[C@@H](O[C@H]2[C@H](O[C@H]3CC[C@]4(C)[C@H]5CC=C6[C@@H]7CC(C)(C)CC[C@]7(C(=O)NCc7ccccc7)CC[C@@]6(C)[C@]5(C)CC[C@H]4C3(C)C)O[C@H](CO)[C@@H](O[C@@H]3O[C@@H](C)[C@H](O)[C@@H](O)[C@H]3O)[C@@H]2O)[C@H](O)[C@H](O)[C@H]1O,4.37
8,C[C@@H]1O[C@@H](O[C@H]2[C@H](O[C@H]3CC[C@]4(C)[C@H]5CC=C6[C@@H]7CC(C)(C)CC[C@]7(C(=O)NCc7ccccn7)CC[C@@]6(C)[C@]5(C)CC[C@H]4C3(C)C)O[C@H](CO)[C@@H](O[C@@H]3O[C@@H](C)[C@H](O)[C@@H](O)[C@H]3O)[C@@H]2O)[C@H](O)[C@H](O)[C@H]1O,> 20
9,C[C@@H]1O[C@@H](O[C@H]2[C@H](O[C@H]3CC[C@]4(C)[C@H]5CC=C6[C@@H]7CC(C)(C)CC[C@]7(C(=O)NCc7ccco7)CC[C@@]6(C)[C@]5(C)CC[C@H]4C3(C)C)O[C@H](CO)[C@@H](O[C@@H]3O[C@@H](C)[C@H](O)[C@@H](O)[C@H]3O)[C@@H]2O)[C@H](O)[C@H](O)[C@H]1O,> 20
10,C[C@@H]1O[C@@H](O[C@H]2[C@H](O[C@H]3CC[C@]4(C)[C@H]5CC=C6[C@@H]7CC(C)(C)CC[C@]7(C(=O)NCc7cccs7)CC[C@@]6(C)[C@]5(C)CC[C@H]4C3(C)C)O[C@H](CO)[C@@H](O[C@@H]3O[C@@H](C)[C@H](O)[C@@H](O)[C@H]3O)[C@@H]2O)[C@H](O)[C@H](O)[C@H]1O,5.89
11,C[C@@H]1O[C@@H](O[C@H]2[C@H](O[C@H]3CC[C@]4(C)[C@H]5CC=C6[C@@H]7CC(C)(C)CC[C@]7(C(=O)N(C)Cc7ccccc7)CC[C@@]6(C)[C@]5(C)CC[C@H]4C3(C)C)O[C@H](CO)[C@@H](O[C@@H]3O[C@@H](C)[C@H](O)[C@@H](O)[C@H]3O)[C@@H]2O)[C@H](O)[C@H](O)[C@H]1O,7.76
12,C[C@@H]1O[C@@H](O[C@H]2[C@H](O[C@H]3CC[C@]4(C)[C@H]5CC=C6[C@@H]7CC(C)(C)CC[C@]7(C(=O)NCc7ccccc7F)CC[C@@]6(C)[C@]5(C)CC[C@H]4C3(C)C)O[C@H](CO)[C@@H](O[C@@H]3O[C@@H](C)[C@H](O)[C@@H](O)[C@H]3O)[C@@H]2O)[C@H](O)[C@H](O)[C@H]1O,5.68
13,C[C@@H]1O[C@@H](O[C@H]2[C@H](O[C@H]3CC[C@]4(C)[C@H]5CC=C6[C@@H]7CC(C)(C)CC[C@]7(C(=O)NCc7ccccc7Cl)CC[C@@]6(C)[C@]5(C)CC[C@H]4C3(C)C)O[C@H](CO)[C@@H](O[C@@H]3O[C@@H](C)[C@H](O)[C@@H](O)[C@H]3O)[C@@H]2O)[C@H](O)[C@H](O)[C@H]1O,6.32
14,C[C@@H]1O[C@@H](O[C@H]2[C@H](O[C@H]3CC[C@]4(C)[C@H]5CC=C6[C@@H]7CC(C)(C)CC[C@]7(C(=O)NCc7ccccc7Br)CC[C@@]6(C)[C@]5(C)CC[C@H]4C3(C)C)O[C@H](CO)[C@@H](O[C@@H]3O[C@@H](C)[C@H](O)[C@@H](O)[C@H]3O)[C@@H]2O)[C@H](O)[C@H](O)[C@H]1O,9.57
15,COc1ccccc1CNC(=O)[C@]12CCC(C)(C)C[C@H]1C1=CC[C@@H]3[C@@]4(C)CC[C@H](O[C@@H]5O[C@H](CO)[C@@H](O[C@@H]6O[C@@H](C)[C@H](O)[C@@H](O)[C@H]6O)[C@H](O)[C@H]5O[C@@H]5O[C@@H](C)[C@H](O)[C@@H](O)[C@H]5O)C(C)(C)[C@@H]4CC[C@@]3(C)[C@]1(C)CC2,16.8
16,C[C@@H]1O[C@@H](O[C@H]2[C@H](O[C@H]3CC[C@]4(C)[C@H]5CC=C6[C@@H]7CC(C)(C)CC[C@]7(C(=O)NCCc7ccccc7)CC[C@@]6(C)[C@]5(C)CC[C@H]4C3(C)C)O[C@H](CO)[C@@H](O[C@@H]3O[C@@H](C)[C@H](O)[C@@H](O)[C@H]3O)[C@@H]2O)[C@H](O)[C@H](O)[C@H]1O,7.37
17,C[C@@H]1O[C@@H](O[C@H]2[C@H](O[C@H]3CC[C@]4(C)[C@H]5CC=C6[C@@H]7CC(C)(C)CC[C@]7(C(=O)NCCCc7ccccc7)CC[C@@]6(C)[C@]5(C)CC[C@H]4C3(C)C)O[C@H](CO)[C@@H](O[C@@H]3O[C@@H](C)[C@H](O)[C@@H](O)[C@H]3O)[C@@H]2O)[C@H](O)[C@H](O)[C@H]1O,13.1
18,C[C@@H]1O[C@@H](O[C@H]2[C@H](O[C@H]3CC[C@]4(C)[C@H]5CC=C6[C@@H]7CC(C)(C)CC[C@]7(C(=O)OCc7ccccc7)CC[C@@]6(C)[C@]5(C)CC[C@H]4C3(C)C)O[C@H](CO)[C@@H](O[C@@H]3O[C@@H](C)[C@H](O)[C@@H](O)[C@H]3O)[C@@H]2O)[C@H](O)[C@H](O)[C@H]1O,16.8
